Laboratory results: patent publication US20020012949A1, “Assay systems for leptin-enhancing agents” (priority 1997, published 2002)

Key:
GST-SHP1-SH2 = biological target: T1, GST-SHP1-SH2 (Homo sapiens, UniProt P29350); test: Binding to GST-SHP1-SH2 by immunoprecipitation and western blot; conditions: 200 nM GST-SHP1-SH2, 15 nM phosphopeptide or cytoplasmic domain fusion, TBST, 4° C. overnight
T1 construct: Amino acids 2-221 of SHP1 were cloned as a EcoRI/BglII fragment into pGEX-3X; made in house; host or cells: E. coli
T1 sequence (P29350 2-221): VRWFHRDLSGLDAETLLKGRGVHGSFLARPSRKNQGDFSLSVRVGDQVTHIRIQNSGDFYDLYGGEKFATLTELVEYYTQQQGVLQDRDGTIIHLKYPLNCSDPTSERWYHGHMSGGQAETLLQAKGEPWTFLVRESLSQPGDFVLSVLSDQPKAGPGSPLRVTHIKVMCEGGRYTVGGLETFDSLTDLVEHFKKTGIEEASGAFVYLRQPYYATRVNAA
Protocol: The GST-SHP1-SH2 construct consists of the two SH2 domains of SHP1fused downstream of GST. Amino acids 2-221 of SHP1 were cloned as a EcoRI/BglII fragment into pGEX-3X and expressed in E. coli.
(§1) Bindings were done as immunoprecipitations. Binding concentrations were typically 200 nM GST-SHP2-SH2 or GST-SHP1-SH2 and 15 nM phosphopeptide or cytoplasmic domain fusion in TBST (20 mM Tris, 150 mM NaCl, 0.1% Tween 20, pH 7.4) at 4° C. overnight. After binding either anti-flag mAb, M2, was added (for the phosphopeptide and flag tagged GST-OB-R-cyto) or anti-myc mAb, 9E10, was added (for the myc tagged GST-OB-R-cyto) and the proteins were precipitated with protein G-sepharose. Proteins were then detected on western blots using anti-GST polyclonal antibodies. For the EPOR-cyto-Trx fusion, the protein complexes were precipitated with glutathione-sepharose and the EPOR-cyto-Trx fusion was detected with anti-Trx polyclonal antibodies.

[1] = tested on: EPOR-cyto-Trx and GST-SHP1-SH2; test: Competition of EPOR-cyto-Trx for GST-SHP1-SH2 binding; conditions: 4 μM peptide, 15 nM EPOR-cyto-P, 200 nM GST-SHP1-SH2
Protocol: FIG. 10. Competition for GST-SHP1-SH2 or GST-SHP2-SH2 binding to EPOR-cyto-P by a phosphopeptide derived from the sequence surrounding Y401 of the cytoplasmic domain of the EPO receptor. 200 nM GST-SHP1-SH2 or GST-SHP2-SH2, 15 nM EPOR-cyto-P, with and without 4 μM peptide were incubated together. GST-SHP1-SH2 or GST-SHP2-SH2 was immunoprecipitated with Glutathione Sepharose (Pharmacia), and co-precipitating EPOR-cyto-P was visualized with an anti-Trx antibody.
as §1
In this competition the complexes were precipitated with glutathione-sepharose and the EPOR-cyto-Trx was detected by western blot using anti-Trx antibodies. […]

[2] = biological target: T2, TOBR (TrkC-OB-R chimeric receptor) (Homo sapiens, UniProt P48357+Q16288); test: Luciferase reporter gene assay, TrkC-OB-R chimeric receptor TOBR in neuroblastoma (NBFL) cells; type: cell-based; conditions: NT-3 at 20 ng/ml for 36 hours
T2 construct: TrkC (amino acids 1 to 458) to the cytoplasmic domain of OB-R (amino acids 865-1165); expressed in transfected cells; host or cells: NBFL neuroblastoma cells

TOBRY986F = biological target: T3, TOBRY986F (Homo sapiens, UniProt P48357+Q16288, Y986F); test: Luciferase reporter gene assay, TrkC-OB-R chimeric receptor TOBRY986F in neuroblastoma (NBFL) cells; type: cell-based; conditions: NT-3 at 20 ng/ml for 36 hours
T3 construct: TrkC (amino acids 1 to 458) to the cytoplasmic domain of OB-R (amino acids 865-1165); expressed in transfected cells; host or cells: NBFL neuroblastoma cells

[3] = biological target: T4, TrkC--OB-R chimera (TOBR) (Homo sapiens, UniProt P48357+Q16288); test: Immunoprecipitation and western blotting of tyrosine phosphorylation, NT-3-stimulated COS cells expressing TOBR; type: cell-based; conditions: 50 ng/ml human NT-3 for 15 min
T4 construct: TrkC (amino acids 1 to 458) to the cytoplasmic domain of OB-R (amino acids 865-1165); expressed in transfected cells; host or cells: COS-7
Protocol: The cytoplasmic domain and full-length human OB-R was cloned by PCR using human fetal liver and adipocyte cDNA (Clontech) and cloned into the expression vectors pCMX and pMT21. Chimeric receptors were constructed by fusing the extracellular domain and transmembrane domain of TrkC (amino acids 1 to 458) to the cytoplasmic domain of OB-R (amino acids 865-1165). A triple myc epitope tag was added at the C-terminus of all OB-R constructs (18). Truncation and point mutant constructs were generated by PCR and the sequences of all constructs were verified. Expression constructs were transfected into COS-7 cells using lipofectamine (GIBCO-BRL); 36-48 hours after transfection, cells were starved for either 2 hour,s for chimeric receptors or overnight for full-length receptors prior to stimulation.
Cells were stimulated with 50 ng/ml of human NT-3 for 15 min or 100 ng/ml of human leptin (R&D Systems) for 10 min. Cells were then lysed in a 1% Brij 96 buffer and receptor was immunoprecipitated with anti-myc antibody 9E10 (18) followed by protein G-sepharose (Pharmacia). Unbound lysate was then immunoprecipitated with anti-P-Tyr antibody (UBI, Lake Placid) or agarose-conjugated anti-SHP-2 antibody (Santa Cruz Biotechnology). […] Endogenous STAT3, SHP-2, Jak1 and Jak2 is being detected in all immunoblotting experiments. […]

GST-SHP2-SH2 = biological target: T5, GST-SHP2-SH2 (Homo sapiens, UniProt Q06124); test: Binding to GST-SHP2-SH2 by immunoprecipitation and western blot; conditions: 200 nM GST-SHP2-SH2, 15 nM phosphopeptide or cytoplasmic domain fusion, TBST, 4° C. overnight
T5 construct: The fusion has aa 2-224 of SHP2 cloned as an EcoRI/BamHI fragment into pGEX-3X; made in house; host or cells: E. coli
T5 sequence (Q06124 2-224): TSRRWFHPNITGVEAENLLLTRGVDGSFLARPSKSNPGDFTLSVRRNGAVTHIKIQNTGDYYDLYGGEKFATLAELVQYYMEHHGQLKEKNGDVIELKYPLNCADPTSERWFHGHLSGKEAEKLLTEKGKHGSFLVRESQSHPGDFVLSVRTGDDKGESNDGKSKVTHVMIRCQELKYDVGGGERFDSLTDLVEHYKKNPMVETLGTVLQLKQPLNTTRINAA
From the text: The GST-SHP2-SH2 construct consists of the two SH2 domains of SHP2fused downstream of glutathione-S-transferase (GST) from Schistosoma japonicum. The fusion has aa 2-224 of SHP2 cloned as an EcoRI/BamHI fragment into pGEX-3X and was expressed in E. coli. The SHP2-SH2-Fc construct consists of the same amino acids as the above fusion fused to human IgG-Fc as a BlpI/SrfI fragment in pMT21 and was expressed in COS-7 cells.
as §1

[4] = biological target: T6, GST-OB-R-cyto/3myc and GST-SHP2-SH2 (Homo sapiens, UniProt Q06124); test: Competition for binding of GST-OB-R-cyto/3myc and GST-SHP2-SH2; conditions: 4 μM phosphopeptide, 15 nM cytoplasmic domain, 200 nM GST-SHP2-SH2
T6 construct: The fusion has aa 2-224 of SHP2 cloned as an EcoRI/BamHI fragment into pGEX-3X; made in house; host or cells: E. coli (OB-R-cyto co-expressed with the ELK tyrosine kinase)
T6 sequence (Q06124 2-224): T5 sequence (Q06124 2-224)
Protocol: (§2) FIG. 9. Competition for GST-SHP1-SH2 or GST-SHP2-SH2 binding to OB-R-cyto-P by a phosphopeptide containing the sequence surrounding Y986 in OB-R. 200 nM GST-SHP1-SH2 or GST-SHP2-SH2, 15 nM OB-R-cyto-P, with and without 4 μM peptide were incubated together. OB-R-cyto-P was immunoprecipitated with an antibody to the myc epitope tag, and co-precipitating GST-SHP1-SH2 or GST-SHP2-SH2 was visualized with an anti-GST antibody.
(§3) Bindings were done as immunoprecipitations. Binding concentrations were typically 200 nM GST-SHP2-SH2 or GST-SHP1-SH2 and 15 nM phosphopeptide or cytoplasmic domain fusion in TBST (20 mM Tris, 150 mM NaCl, 0.1% Tween 20, pH 7.4) at 4° C. overnight. […] Proteins were then detected on western blots using anti-GST polyclonal antibodies. For the EPOR-cyto-Trx fusion, the protein complexes were precipitated with glutathione-sepharose and the EPOR-cyto-Trx fusion was detected with anti-Trx polyclonal antibodies.
(§4) In this experiment the SH2 domain, the cytoplasmic domain, and the peptide were mixed and allowed to reach equilibrium. The receptor cytoplasmic domain was precipitated with anti-myc mAb and complexed GST-SHP1-SH2 and GST-SHP2-SH2 were detected by western blot with an anti-GST antibody.

[5] = biological target: T7, GST-OB-R-cyto/3myc and GST-SHP1-SH2 (Homo sapiens, UniProt P29350); test: Competition for binding of GST-OB-R-cyto/3myc and GST-SHP1-SH2; conditions: 4 μM phosphopeptide, 15 nM cytoplasmic domain, 200 nM GST-SHP1-SH2
T7 construct: Amino acids 2-221 of SHP1 were cloned as a EcoRI/BglII fragment into pGEX-3X; made in house; host or cells: E. coli (OB-R-cyto co-expressed with the ELK tyrosine kinase)
T7 sequence (P29350 2-221): T1 sequence (P29350 2-221)
Protocol: as §2, §3, §4

Substance	binding to GST-SHP1-SH2 (GST-SHP1-SH2)	binding to GST-SHP1-SH2 (GST-SHP1-SH2; listed as synthetic phosphopeptide from EPOR)	competition of EPOR-cyto-Trx for GST-SHP1-SH2 binding [1]	increase in luciferase activity [2]	increase in luciferase activity (TOBRY986F)	tyrosine phosphorylation of TOBR and downstream signaling molecules [3]	binding to GST-SHP2-SH2 (GST-SHP2-SH2)	competition for binding of GST-OB-R-cyto/3myc and GST-SHP2-SH2 [4]	competition for binding of GST-OB-R-cyto/3myc and GST-SHP1-SH2 [5]
CPHLKp-YLYLVVSDDYKDDDDK [EPOR phosphopeptide]	bound	Very poor binding	a small amount of competition						
NT-3: neurotrophin-3, surrogate ligand used to activate the TrkC-OB-R chimeric receptors				~8 fold	~45 fold	resulted in ligand-dependent tyrosine phosphorylation			
QPFVKp-YATLISNDYKDDDDK [OB-R phosphopeptide]	bound		a small amount of competition				bound specifically	no competition	no competition
